The source of these data is patent publication US20200131129A1, “FARNESOID X RECEPTOR AGONISTS AND USES THEREOF” (Metacrine, Inc., priority 2017, published 2020).

The test concerns the target T1, hFXR (Homo sapiens, UniProt Q96RI1).
T1 construct: expressed in transfected cells; host or cells: CV-1 cells
T1 sequence (Q96RI1 1-486): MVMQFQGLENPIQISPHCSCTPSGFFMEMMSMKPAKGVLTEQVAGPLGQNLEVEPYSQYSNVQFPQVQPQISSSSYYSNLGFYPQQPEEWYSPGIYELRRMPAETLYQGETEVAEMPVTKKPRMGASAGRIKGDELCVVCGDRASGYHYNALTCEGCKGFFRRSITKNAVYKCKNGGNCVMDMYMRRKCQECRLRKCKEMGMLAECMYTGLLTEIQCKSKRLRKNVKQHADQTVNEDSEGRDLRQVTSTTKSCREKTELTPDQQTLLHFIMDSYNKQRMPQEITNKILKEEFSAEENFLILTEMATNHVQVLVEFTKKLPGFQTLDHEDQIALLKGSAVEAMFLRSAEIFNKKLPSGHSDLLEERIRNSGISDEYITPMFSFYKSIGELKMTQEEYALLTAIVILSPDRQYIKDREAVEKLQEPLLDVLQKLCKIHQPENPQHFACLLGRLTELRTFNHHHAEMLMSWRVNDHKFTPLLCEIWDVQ
T1 sequence (P19793 1-462 partner): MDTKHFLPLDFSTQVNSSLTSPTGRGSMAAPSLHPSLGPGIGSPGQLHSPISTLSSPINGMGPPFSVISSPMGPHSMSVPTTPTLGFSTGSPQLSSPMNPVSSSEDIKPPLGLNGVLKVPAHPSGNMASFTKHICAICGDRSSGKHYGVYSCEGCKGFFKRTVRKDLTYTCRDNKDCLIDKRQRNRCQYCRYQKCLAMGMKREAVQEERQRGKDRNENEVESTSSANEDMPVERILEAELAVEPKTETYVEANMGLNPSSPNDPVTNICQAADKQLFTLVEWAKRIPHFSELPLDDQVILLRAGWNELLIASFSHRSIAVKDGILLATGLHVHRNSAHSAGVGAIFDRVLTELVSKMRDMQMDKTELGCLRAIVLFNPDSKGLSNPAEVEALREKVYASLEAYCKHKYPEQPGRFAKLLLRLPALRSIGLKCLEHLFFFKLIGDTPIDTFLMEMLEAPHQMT
The test is described as follows: In Vitro FXR Assay (TK): hFXR/hRXR TK-ECRE-luc reporter in transfected CV-1 cells. The format is cell-based. To be noted: CV-1 cells transfected with hFXR, hRXR, 18 hrs incubation, luminescence, maximum efficacy <25% of Fexarmine control also classified as ‘+’. The method, then:
Example B-1: In Vitro FXR Assay (TK)
CV-1 cells were seeded at a density of 2,000,000 cells in a T175 flask with DMEM+10% charcoal double-stripped FBS and incubated at 37° C. in 5% CO2 for 18 h (O/N).
After 18 h of incubation, the medium in the T175 flask was changed with fresh DMEM+10% charcoal super-stripped serum. In a polypropylene tube, 2500 μL OptiMEM (Life Technologies, Cat #31985-062) was combined with expression plasmids for hFXR, hRXR, TK-ECRE-luc and pCMX-YFP. The tube was then briefly vortexed and incubated at room temperature for 5 minutes. Transfection reagent (X-tremeGENE HP from Roche, Cat #06 366 236 001) was added to the OptiMEM/plasmid mixture vortexed and incubated at room temperature for 20 minutes. Following incubation, the transfection reagent/DNA mixture complex was added to cells in the T175 flask and the cells were incubated at 37° C. in 5% CO2 for 18 h (0/N).
Compounds were serially diluted in DMSO and added to transfected CV-1 cells. The cells were then incubated for 18 hrs. The next day cells were lysed and examined for luminescence.
The molecule `CCc1cc(-c2cccc(N(C[C@H]3CC[C@H](c4ccc(OC)c(C)c4)CC3)C(=O)[C@H]3CC[C@H](O)CC3)c2)ns1` [Compound 9.06, trans-N-(3-(5-Ethylisothiazol-3-yl)phenyl)-4-hydroxy-N-((trans-4-(4-methoxy-3-methylphenyl)cyclohexyl)methyl) cyclohexanecarboxamide] returned a 50% effective concentration (EC50) of no more than 500 nM.
For the molecule `COc1ccc([C@H]2CC[C@H](CN(c3cccc(-c4ncsn4)c3)C(=O)[C@H]3CC[C@H](O)CC3)CC2)cc1C` [Compound 9.07, trans-N-(3-(1,2,4-Thiadiazol-3-yl)phenyl)-4-hydroxy-N-((trans-4-(4-methoxy-3-methylphenyl)cyclohexyl)methyl) cyclohexanecarboxamide], the EC50 lay in the range of 500 to 1000 nM.
Then `COc1ccc([C@H]2CC[C@H](CN(c3cccc(-c4cc(C)on4)c3)C(=O)[C@H]3CC[C@H](O)CC3)CC2)cc1C` [Compound 9.08, trans-4-Hydroxy-N-((trans-4-(4-methoxy-3-methylphenyl)cyclohexyl)methyl)-N-(3-(5-methylisoxazol-3-yl)phenyl)cyclohexanecarboxamide], with no more than 500 nM.
With `COc1ccc([C@H]2CC[C@H](CN(c3cccc(-n4cc(C)nn4)c3)C(=O)[C@H]3CC[C@H](O)CC3)CC2)cc1C` [Compound 9.09, trans-4-Hydroxy-N-((trans-4-(4-methoxy-3-methylphenyl)cyclohexyl)methyl)-N-(3-(4-methyl-1H-1,2,3-triazol-1-yl)phenyl)cyclohexanecarboxamide] the figure was no less than 1000 nM; with `COc1ccc([C@H]2CC[C@H](CN(c3cccc(-n4ncc(C)n4)c3)C(=O)[C@H]3CC[C@H](O)CC3)CC2)cc1C` [Compound 9.10, trans-4-Hydroxy-N-((trans-4-(4-methoxy-3-methylphenyl)cyclohexyl)methyl)-N-(3-(4-methyl-2H-1,2,3-triazol-2-yl)phenyl)cyclohexanecarboxamide], no less than 1000 nM.
Then `COc1ccc([C@H]2CC[C@H](CN(c3cccc(-c4noc(C)n4)c3)C(=O)[C@H]3CC[C@H](O)CC3)CC2)cc1C` [Compound 9.11, trans-4-Hydroxy-N-((trans-4-(4-methoxy-3-methylphenyl)cyclohexyl)methyl)-N-(3-(5-methyl-1,2,4-oxadiazol-3-yl)phenyl)cyclohexanecarboxamide], with 500 to 1000 nM; and `COc1ccc([C@H]2CC[C@H](CN(c3cccc(-c4cnc(C5CC5)o4)c3)C(=O)[C@H]3CC[C@H](O)CC3)CC2)cc1C` [Compound 9.12, trans-N-(3-(2-Cyclopropyloxazol-5-yl)phenyl)-4-hydroxy-N-((trans-4-(4-methoxy-3-methylphenyl)cyclohexyl)methyl) cyclohexanecarboxamide], with no more than 500 nM; and `COc1ccc([C@H]2CC[C@H](CN(c3cccc(-c4cc(C5CC5)no4)c3)C(=O)[C@H]3CC[C@H](O)CC3)CC2)cc1C` [Compound 9.13, trans-N-(3-(3-cyclopropylisoxazol-5-yl)phenyl)-4-hydroxy-N-((trans-4-(4-methoxy-3-methylphenyl)cyclohexyl)methyl) cyclohexanecarboxamide], with no more than 500 nM.
Turning to `COc1ccc([C@H]2CC[C@H](CN(c3cccc(-c4cc(C5CC5)on4)c3)C(=O)[C@H]3CC[C@H](O)CC3)CC2)cc1C` [Compound 9.14, trans-N-(3-(5-Cyclopropylisoxazol-3-yl)phenyl)-4-hydroxy-N-((trans-4-(4-methoxy-3-methylphenyl)cyclohexyl)methyl) cyclohexanecarboxamide], the EC50 was no more than 500 nM.
For `COc1ccc([C@H]2CC[C@H](CN(c3cccc(-c4coc(C5CC5)n4)c3)C(=O)[C@H]3CC[C@H](O)CC3)CC2)cc1C` [Compound 9.15], the EC50 is no more than 500 nM.
With `COc1ccc(C23CCC(CN(c4cccc(-c5cc(C6CC6)ns5)c4)C(=O)[C@H]4CC[C@H](O)CC4)(CC2)CC3)cc1C` [Compound 10.01, trans-N-(3-(3-Cyclopropylisothiazol-5-yl)phenyl)-4-hydroxy-N-((4-(4-methoxy-3-methylphenyl)bicyclo[2.2.2]octan-1-yl)methyl)cyclohexanecarboxamide] the figure was no more than 500 nM; with `CN(C)c1ccc([C@H]2CC[C@H](CN(c3cccc(-c4coc(C5CC5)n4)c3)C(=O)[C@H]3CC[C@H](O)CC3)CC2)cn1` [Compound 10.02, trans-N-(3-(2-Cyclopropyloxazol-4-yl)phenyl)-N-((trans-4-(6-(dimethylamino)pyridine-3-yl)cyclohexyl)methyl)-4-hydroxycyclohexanecarboxamide], no more than 500 nM.
As to `CN(C)c1ccc(C23CCC(CN(c4cccc(-c5coc(C6CC6)n5)c4)C(=O)[C@H]4CC[C@H](O)CC4)(CC2)CC3)cn1` [Compound 10.03, trans-N-(3-(2-Cyclopropyloxazol-4-yl)phenyl)-N-((4-(6-(dimethylamino)pyridine-3-yl)bicyclo[2.2.2]octan-1-yl)methyl)-4-hydroxycyclohexanecarboxamide], the EC50 is no more than 500 nM.
Then `COc1ccc([C@H]2CC[C@H](CN(c3cccc(-c4coc(C(C)C)n4)c3)C(=O)[C@H]3CC[C@H](O)CC3)CC2)cc1C` [Compound 10.04, trans-4-Hydroxy-N-(3-(2-isopropyloxazol-4-yl)phenyl)-N-((trans-4-(4-methoxy-3-methylphenyl)cyclohexyl)methyl) cyclohexanecarboxamide], with no more than 500 nM.
Then `COc1ccc([C@H]2CC[C@H](CN(c3cccc(-c4coc(C(C)C)n4)c3)C(=O)[C@H]3CC[C@H](O)CC3)CC2)nc1C` [Compound 10.05, trans-4-Hydroxy-N-(3-(2-isopropyloxazol-4-yl)phenyl)-N-((trans-4-(5-methoxy-6-methylpyridin-2-yl)cyclohexyl)methyl) cyclohexanecarboxamide], with no more than 500 nM; and `COc1ccc([C@H]2CC[C@H](CN(c3cccc(-c4coc(C5CC5)n4)c3)C(=O)[C@H]3CC[C@H](O)CC3)CC2)nc1C` [Compound 10.06, trans-N-(3-(2-Cyclopropyloxazol-4-yl)phenyl)-4-hydroxy-N-((trans-4-(5-methoxy-6-methylpyridin-2-yl)cyclohexyl)methyl) cyclohexanecarboxamide], with no more than 500 nM; and `COc1ccc([C@H]2CC[C@H](CN(c3cc(-c4coc(C5CC5)n4)ccn3)C(=O)[C@H]3CC[C@H](O)CC3)CC2)cc1C` [Compound 10.07, trans-N-(4-(2-Cyclopropyloxazol-4-yl)pyridine-2-yl)-4-hydroxy-N-((trans-4-(4-methoxy-3-methylphenyl)cyclohexyl)methyl) cyclohexanecarboxamide], with no more than 500 nM.
Then `COc1ccc([C@H]2CC[C@H](CN(c3cccc(-c4cc(C5CC5)ns4)c3)C(=O)[C@H]3CC[C@H](O)CC3)CC2)nc1C` [Compound 10.08, trans-N-(3-(3-Cyclopropylisothiazol-5-yl)phenyl)-4-hydroxy-N-((trans-4-(5-methoxy-6-methylpyridin-2-yl)cyclohexyl)methyl) cyclohexanecarboxamide], with no more than 500 nM; and `COc1ccc([C@H]2CC[C@H](CN(c3cc(-c4coc(C5CC5)n4)ccn3)C(=O)[C@H]3CC[C@H](O)CC3)CC2)nc1C` [Compound 10.09, trans-N-(4-(2-Cyclopropyloxazol-4-yl)pyridine-2-yl)-4-hydroxy-N-((trans-4-(5-methoxy-6-methylpyridin-2-yl)cyclohexyl)methyl) cyclohexanecarboxamide], with no more than 500 nM.

What is called EC50 is the concentration giving half of the maximal effect.
